From publication PMC11206987, “Investigation of the Efficacy of Benzylidene-3-methyl-2-thioxothiazolidin-4-one Analogs with Antioxidant Activities on the Inhibition of Mushroom and Mammal Tyrosinases” (Molecules, 2024)

Legend:
mushroom tyrosinase = mushroom tyrosinase (Agaricus bisporus, UniProt C7FF04); experiment: Kinetic study of mushroom tyrosinase inhibition (Lineweaver–Burk and Dixon plots); type: biochemical
Procedure: The initial rate of dopachrome generation was examined at various BMTTZD analog concentrations (0, 1.5, 3, and 6 µM for analog 1; 0, 2, 4, and 8 µM for analogs 2 and 5; and 0, 0.05, 0.1, and 0.2 µM for 3) with 0.5, 1, 2, 4, 8, or 16 mM L-dopa as substrates using mushroom tyrosinase. Plotting the reciprocal of the dopachrome formation rate against the inverse of the L-dopa concentration produced Lineweaver–Burk plots (Figure 2). Each Lineweaver–Burk plot created four straight lines with different slopes. For analogs 1 and 3, the four straight lines met at a point on the y-axis, whereas for analogs 2 and 5, the four straight lines converged at a point in the second quadrant.
The Dixon plots produced lines that met in the second quadrant. The x-coordinate of the convergence position represents the inhibition constant (Ki) of the ligand.
Lineweaver–Burk (L-B) plots were acquired for the kinetic analysis of analogs against mushroom tyrosinase as previously described. In brief, 10 µL of a solution of DMSO and BMTTZD analogs 1–3 or 5 (final concentrations: 0, 1.5, 3, and 6 µM for analog 1; 0, 2, 4, and 8 µM for analogs 2 and 5; and 0, 0.05, 0.1, and 0.2 µM for analog 3) in each well of a 96-well plate was mixed with 20 µL of aqueous mushroom tyrosinase solution (200 units/mL) and 170 µL of an aqueous substrate mixture (various concentrations of L-dopa (final concentrations: 16, 8, 4, 2, 1 and 0.5 mM) and 17.2 mM sodium phosphate buffer (pH 6.5)). During incubation (15 min at 37 °C), the increase in the well absorbance (ΔOD475/min) was calculated at 1 min intervals utilizing a VersaMax® reader.

B16F10 cells = experiment: Melanin content assay in B16F10 cells; type: cell-based, murine; details: 72 h
Procedure: We examined whether the ability of analogs 1, 3, and 5 to inhibit intracellular tyrosinase activity could affect intracellular melanin levels. B16F10 cells were utilized as mammalian cells. IBMX and α-MSH were used at 200 µM and 1 µM, respectively, to increase melanin biosynthesis. […] For the intracellular melanin content determination, the absorbance at 405 nm was evaluated after 72 h of incubation.
The effect of BMTTZD analogs on melanin biosynthesis was investigated following a previously described method. A 6-well microplate containing 1 × 10^5 B16F10 cells/well was cultivated for 23 h under conditions identical to those of the cell culture. […] After exposure to IBMX and α-MSH, B16F10 cells were cultivated for 72 h at 37 °C. The cells were rinsed 2 times with PBS, treated with 1N-NaOH aqueous solution (100 µL), and cultivated at 60 °C for 1 h. The lysates were moved to a microplate. At 405 nm, the well absorbance was measured utilizing a VersaMax® reader. Each experiment was carried out three times independently.

Sequence of mushroom tyrosinase (C7FF04 1-392): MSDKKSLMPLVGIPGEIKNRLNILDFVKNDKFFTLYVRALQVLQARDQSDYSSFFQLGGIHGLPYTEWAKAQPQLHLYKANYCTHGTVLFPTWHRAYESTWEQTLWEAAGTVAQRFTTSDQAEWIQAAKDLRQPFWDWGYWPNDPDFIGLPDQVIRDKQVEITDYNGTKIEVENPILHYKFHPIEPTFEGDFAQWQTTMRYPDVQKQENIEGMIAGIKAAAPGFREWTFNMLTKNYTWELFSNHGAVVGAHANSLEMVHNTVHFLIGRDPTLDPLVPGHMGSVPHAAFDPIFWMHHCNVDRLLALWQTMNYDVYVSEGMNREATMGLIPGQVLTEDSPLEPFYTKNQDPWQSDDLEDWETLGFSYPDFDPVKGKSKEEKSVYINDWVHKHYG

CN1C(=O)/C(=C/c2ccc(O)cc2O)SC1=S [Analog 3, (Z)-5-(2,4-Dihydroxybenzylidene)-3-methyl-2-thioxothiazolidin-4-one]
type of tyrosinase inhibition (Lineweaver–Burk plots) (mushroom tyrosinase; substrate L-dopa 0.5–16 mM): competitive inhibitors | Ki (mushroom tyrosinase; substrate L-dopa, read-out: inhibition constant (Ki) from Dixon plots): 47 nM | decrease of intracellular melanin contents (B16F10 cells; 20 µM, IBMX plus α-MSH (raised melanin 4.4-fold)): 2.0 fold | effect on intracellular melanin contents enhanced by IBMX plus α-MSH (B16F10 cells; 5, 10, 20 µM): significantly reduced the melanin contents
